Literature values in patent US20050074443A1, “Methods of attenuating autoimmune disease and compositions useful therefor” (priority 2003, published 2005).

System: experimental autoimmune encephalomyelitis
Details: exogenous administration, mouse model

**Q.** With `C=C1/C(=C\C=C2/CCC[C@]3(C)[C@@H]([C@H](C)CCCC(C)(C)O)CC[C@@H]23)C[C@@H](O)C[C@@H]1O` [1,25-dihydroxyvitamin D3] as the compound, how does the “effect on experimental autoimmune encephalomyelitis” value read?
**A.** can prevent experimental autoimmune encephalomyelitis
